Laboratory results taken from article PMC7113753 (Antiviral Research, 2018).
“Also recorded” adds a separate entry of the source. Like-named read-outs stand apart in the source and are kept apart here.

Assays:
PEDV PL2^pro [1] = target: T1, PEDV PL2^pro (Porcine epidemic diarrhea virus, UniProt V5W8W2); test: biochemical; type: biochemical
human USP2 = conditions: cited from earlier work
PEDV PL2^pro [2] = target: T1, PEDV PL2^pro; type: biochemical

For `Cc1ccc(N)cc1C(=O)N[C@H](C)c1cccc2ccccc12` [GRL0617], the IC50 (PEDV PL2^pro [1]; read-out: IC50 (DUB activity), pH 6.5) was over 100 µM.

`COc1c(C)c2c(c(O)c1C/C=C(\C)CCC(=O)O)C(=O)OC2` [Mycophenolic acid] gave an IC50 (PEDV PL2^pro [1]) of over 200 µM.

In the case of `O=C(O)CN(CCN(CC(=O)O)CC(=O)O)CC(=O)O` [EDTA], the “inhibition of DUB activity by EDTA (in words)” value (PEDV PL2^pro [1]) is reported as “dose-dependent pattern”.

With `O=c1[nH]cnc2nc[nH]c12` [Hypoxanthine] the IC50 (PEDV PL2^pro [1]) was over 200 µM and the “inhibitory activity (in words)” value (PEDV PL2^pro [1]) was “devoid of inhibitory activity”.

In the case of `Nc1nc2nc[nH]c2c(=S)[nH]1` [6TG, 6-thioguanine], the pattern of inhibition (human USP2) is given as “noncompetitive inhibitory effect”, the “IC50 of 6TG fold lower than that of 6MP” value (PEDV PL2^pro [1]) is given as 4.2 fold and the pattern of inhibition (PEDV PL2^pro [2]) is given as “noncompetitive inhibitor; also recorded: noncompetitive pattern of inhibition”.

With `CCN(CC)C(=S)SSC(=S)N(CC)CC` [Disulfiram] the IC50 (PEDV PL2^pro [1]) was over 100 µM.

For zinc ions, the “inhibition of DUB activity by external zinc ions (in words)” value (PEDV PL2^pro [1]) was “can be inhibited”.

With `Sc1ncnc2nc[nH]c12` [6MP, 6-mercaptopurine] the IC50 (PEDV PL2^pro [1]) was 58.1 ± 5.7 µM.
